Source: ChEMBL document CHEMBL3507680, “University of Dundee, Gates Library screen for HepG2 cell viability”

Assay: Human HepG2 cell viability assay in 384 well format
Type: toxicity, cell-based
Design: dose 125 nL, time 70.5 hour; cytotoxicity at 70.5 h: concentration not given beside the values
Details: HepG2 cells, read-out: Inhibition

Row | SMILES | cytotoxicity at 70.5 h [%]
1 | O=C(NCc1ccccc1)N1C[C@H]2CCN[C@H]2C1 | 26
2 | COCc1nc(CNC2CCN(C(C)C)CC2)no1 | -8.15
3 | COC[C@@H]1CCC[C@]12CN(S(=O)(=O)c1cccs1)CCO2 | -4.17
4 | CN(C)C(=O)C1CCCN1C(=O)c1ccc(Cn2ccnc2)o1 (stereo unspecified) | 10.3
5 | Cc1cc(N)cc(C2CN(Cc3cc[nH]n3)CCO2)n1 (stereo unspecified) | -6.43
6 | Cc1cn2c(n1)CCC(NS(=O)(=O)c1ccc(C)s1)C2 (stereo unspecified) | -1.48
7 | Cc1ccc(C)c(CS(=O)(=O)CC(=O)NCCCOC(C)C)c1 | -4.92
8 | COCCCN(Cc1ccccc1Cl)C1CCS(=O)(=O)C1 (stereo unspecified) | 25.3
9 | Cc1cc(N2CCOC(c3ccncn3)C2)ncn1 (stereo unspecified) | -0.0886
10 | COc1ccccc1Nc1nc2c(s1)C(=O)CN(C(=O)CC(C)C)C2 | 2.87
11 | Cc1ccc2c(C)c(C(=O)NCCc3csc(N)n3)oc2c1 | 7.44
12 | CCN(CCc1nccs1)C(=O)c1ccco1 | -7.04
13 | c1ccc(N2CCc3ncnc(C4CC4)c3CC2)nc1 | -12.5
14 | CNS(=O)(=O)c1csc(C(=O)N(C)Cc2ccccc2C)c1 | 0.0278
15 | CC(Cc1cnccn1)NC(=O)COc1ccc(F)cc1F (stereo unspecified) | 3.61
16 | O=c1cc(CN2CCCC2)nc2n1CCCN(Cc1ccco1)C2 | -2.44
17 | Cc1cnn(CC2CCCCN2C(=O)c2ccc3[nH]c(=O)[nH]c3c2)c1 (stereo unspecified) | -0.746
18 | Cc1nc(CN2CCCN(CCOc3ccc(C#N)cc3)CC2)no1 | -0.262
19 | O=C(Cn1cc(-c2ccccc2)ncc1=O)Nc1nccs1 | 7.52
20 | Cc1ccc2nc(N3CCN(CC(=O)NC(C)C)CC3)cc(C)c2c1 | -1.6
21 | CC(=O)Nc1ccc(CNCC(O)c2ccc(Cl)cc2)cc1 (stereo unspecified) | -5.19
22 | Cc1nc(C)n(CC2CCCN2Cc2nc3ccccc3n2C)n1 (stereo unspecified) | -7.27
23 | CCS(=O)(=O)N1CCCC2(CCCC(=O)N2C)C1 (stereo unspecified) | -9.96

Row | SMILES | cytotoxicity at 70.5 h [%]
24 | COc1ccc(CNc2c(N3CCN(C)CC3)c(=O)c2=O)cc1 | -8.39
25 | COc1ccc(F)cc1C(C)NC(=O)Nc1nnc(C)s1 (stereo unspecified) | -12.6
26 | COc1ccccc1CC(=O)NS(=O)(=O)c1ccc(C#N)cc1 | 4.13
27 | COc1cccc(CN(C)C(C)c2ccco2)c1OCCn1ccnc1 (stereo unspecified) | -6.31
28 | COc1cnc(N2C[C@H](CO)C[C@H](CN3CCOCC3)C2)nc1 | -2.01
29 | Cc1ccc(-c2nc(CN(Cc3cccs3)CC3CCCO3)no2)cc1 (stereo unspecified) | -8.66
30 | O=C(c1ccsc1)N1CCc2onc(COc3ccccn3)c2C1 | -1.49
31 | Cc1cc(N2CCN(Cc3cn(C)nc3C)CC2)cc(C2CCNC2)n1 (stereo unspecified) | -5.44
32 | CCCNC(=O)CNc1cc(C#N)ccc1OCC | 14.1
33 | COc1cc(C(=O)N2CCCC(n3cncn3)C2)ccc1C (stereo unspecified) | -8.45
34 | CCCc1ccc(CN2CCC3(CCC(=O)N(C)CC3)CC2)o1 | 17.3
35 | Cc1nc(CNC(C)c2ccc(S(=O)(=O)N(C)C)cc2)no1 (stereo unspecified) | -2.76
36 | CN(Cc1ccoc1)c1ccc(-c2nccn2C)nn1 | 26.2
37 | O=C(NCc1ccccc1)N1CCn2c(Cn3cccn3)cnc2C1 | -2.08
38 | Cn1ccnc1CN1CCN(CC(O)c2ccccc2)CC1 (stereo unspecified) | -12.2
39 | Cc1ncsc1CN1CCOC(C)(C(=O)N2CCOCC2)C1 (stereo unspecified) | -2.94
40 | Cc1ccc(C(=O)Nc2nnc(CC(C)C)s2)c(-n2cnnn2)c1C | 29.7
41 | NC(=O)CN1CCC(C(=O)NCC(O)c2cccc(F)c2)CC1 (stereo unspecified) | -10.5
42 | Fc1ccc(-c2nc(CN3CCCCC3Cn3cncn3)co2)cc1 (stereo unspecified) | -3.61
43 | Cc1nn(C)c(C)c1C1CCCN1CC(=O)Nc1nccs1 (stereo unspecified) | -0.764
44 | CC(C)C(=O)NCCC(=O)N1CCN(c2ccccn2)CC1 | -4.63
45 | CN(Cc1ccc(-n2ccnc2)cc1)CC1CCCN1c1cccnn1 (stereo unspecified) | 23
46 | OC1(CN2CCCC2)COCCN(c2nnc(-c3ccccc3)s2)C1 (stereo unspecified) | 15.8
